Experimental data reported in patent EP0642504B1 (priority 1991, dated 1993).
Marks after values point to notes of the source that are not given here.

Tests used:
[1] = Solubility in the oocyte test medium; type: physicochemical
Experimental: Several NMDA receptor blockers were tested. These compounds have very low solubility and have to be dissolved in 100% dimethyl sulfoxide (DMSO) and diluted for use in ND 96 that contained 1% DMSO. Therefore, the effect of 1% DMSO on the response to 10-^4 M NMDA and 5x10-^6 M glycine was examined. DMSO had no effect on NMDA response in three different cells.
The effect of HU-245 was reversible upon return to ND 96 solution.

intraocular pressure = assay: Reduction of intraocular pressure (anti-glaucoma activity); type: in vivo, rabbits; settings: 50 µl drop of a 1% emulsion into the rabbit eye
Experimental: Reduction of intraocular pressure in rabbits was determined by the addition of a 50 µl drop of a 1% emulsion of the cannabinoid into the rabbit eye. This test is a measure of anti-glaucomatic activity.

[2] = tested on: forebrain ischemia (unilateral occlusion); assay: Forebrain ischemia (unilateral occlusion); type: in vivo; settings: mongolian gerbils
Excerpt: The present compounds are active in several tests generally used to indicate neuroprotection.

peritoneal leukocytes = assay: Leukocyte adhesion assay, peritoneal cells collected after oral dosing; type: in vivo, CD-1 mice; settings: cells collected 90 min after administration; for number of adhering cells x 10^-6 ± S.D.: 18-20 hours incubation
Experimental: Leukocytes are thought to be major contributors to the inflammatory response and their ability in this regard is reflected by their adhesiveness to a variety of substrates [Audette, C.A., et al., Life Sci., 47, 753 (1990)].
The details of the leukocytes adhesion assay have been previously reported [Audette et al., ibid.]. In brief, peritoneal cells from femals CD-1 mice (20-25 g) were collected at 90 min following oral administration of the drug or vehicle (50 µl peanut oil). Cells from each treatment group (N=3) were pooled and equal numbers aliquoted into six culture dish wells (1.9 cm^2 area). After incubation for 18-20 hours, non-adhering cells were removed and the remaining cell monolayer quantitated by DNA measurement.

PAF-Induced Paw Edema = assay: PAF-induced paw edema (water displacement); type: in vivo, CD-1 female mice; settings: oral, 15 min after PAF (1.0 µg s.c.), vs vehicle treated controls
Experimental: A second model, in which edema is induced by platelet activating factor (PAF), was used to evaluate activity.
(§1) The conditions were based on those reported previously [Calhoun et al., ibid.]. […] PAF (1.0 µg) or arachidonic acid (1.0 mg) dissolved in 50 µl of 5% ethanol in saline, were injected s.c. into the plantar surface of the right hind paw of CD-1 female mice (20-25 g) obtained from Charles River Labs. The mice were under ether anesthesia during this procedure. The volume of the right foot was measured to the level of the lateral malleous by water displacement before treatment and 15 min after PAF injection or 30 min after archidonate injection. The change in paw volume was calculated for each mouse and the significance for each group was determined by a paired t test analysis.

NMDA receptor = assay: NMDA-blocking response in Xenopus oocytes injected with rat brain RNA (two-electrode voltage clamp); type: cell-based
Excerpt: The oocyte is the most widely used system for studying the molecular, biophysical and pharmacological properties of expressed voltage- or transmitter-operated ion channels. This giant cell offers several advantages for this type of studies. It can be readily used for two-electrode voltage clamp studies, translates injected mRNA from different sources and functionally expresses the translated proteins, and it is also readily amenable for intracellular microinjections. Importantly, the recordings of transmitter- or voltage-incuded currents in a single oocyte are extremely stable and can be done, without rundown, for 2-3 hours; this allows the performance of a full dose-response relation in single oocytes.
Neuronal receptors for excitatory amino acid (EAA) are becoming increasingly important for the understanding of normal and pathological brain function. Quantitative pharmacological studies of EAA receptor/ion channel complex are difficult to study in neurons. Therefore, Xenopus oocyte injected with brain mRNA is now the preparation of choice.
The response to N-methyl-D-aspartate (NMDA) in oocytes injected with rat brain mRNA was characterized and the effects of HU-245 were studied.
Female Xenopus were anesthetized by immersion in water containing 0.15% tricaine methanesulfonate and a small incision was made in the lower adbomen. Ovary fragments were removed into ND-96. […]

[3] = tested on: Arachidonic Acid-Induced Paw Edema; assay: Arachidonic acid-induced paw edema (water displacement); type: in vivo, CD-1 female mice; settings: oral, 30 min after arachidonic acid (1.0 mg s.c.), vs vehicle treated controls
Experimental: The induction of paw edema in rodents by injection of arachidonic acid has been used as an experimental model for inflammation [Calhoun, W., et al., Agents and Actions, 21, 306 (1987)]. Prior administration of non-steroidal anti-inflammatory drugs (NSAIDs) in many cases leads to a dose related inhibition of the edematous response which may be considered a predictor of clinical efficacy.
as §1

CCCCCCC(C)(C)c1cc(OC(C)=O)c2c(c1)OC(C)(C)[C@H]1CC=C(C(=O)O)C[C@H]21 [HU-245, (3S,4S)-THC-DMH-7-oic acid, acetate]
solubility compared with prior art compounds [1]: higher than that of prior art compounds | solubility ([1]; nd 96 with 1% dmso, organic solvent or mixture, ND 96 containing 1% DMSO, read-out: solubility (soluble at a concentration of up to)): ≤ 0.1 µM | Reduction of intraocular pressure (intraocular pressure): Significant reduction | protection against forebrain ischemia [2]: protect against forebrain ischemia | adhering cells, percent of control (peritoneal leukocytes; dose 0.05 mg/kg oral): 105% of control | number of adhering cells x 10^-6 ± S.D. (peritoneal leukocytes; dose 0.05 mg/kg oral): 1.32±0.04 x 10^-6 | adhering cells, percent of control (peritoneal leukocytes; dose 0.10 mg/kg oral): 52% of control | number of adhering cells x 10^-6 ± S.D. (peritoneal leukocytes; dose 0.10 mg/kg oral): 0.66±0.05 x 10^-6 | adhering cells, percent of control (peritoneal leukocytes; dose 0.50 mg/kg oral): 67% of control | number of adhering cells x 10^-6 ± S.D. (peritoneal leukocytes; dose 0.50 mg/kg oral): 0.85±0.08 x 10^-6 | adhering cells, percent of control (peritoneal leukocytes; dose 1.00 mg/kg oral): 24% of control | number of adhering cells x 10^-6 ± S.D. (peritoneal leukocytes; dose 1.00 mg/kg oral): 0.30±0.04 x 10^-6 | percent inhibition of paw edema (PAF-Induced Paw Edema; dose 0.10 mg/kg): 37.3* percent | percent inhibition of paw edema (PAF-Induced Paw Edema; dose 0.25 mg/kg): 66.9* percent | percent inhibition of paw edema (PAF-Induced Paw Edema; dose 0.5 mg/kg): 72.0* percent | response to NMDA (NMDA receptor; 10-^6M compound, 10-^4 M NMDA and 5x10-^6 M glycine, membrane potential -60mV, 1 µM): 55 % of control | reversibility of the effect on the NMDA response (NMDA receptor; upon return to ND 96 solution): reversible | percent inhibition of paw edema ([3]; dose 0.050 mg.kg): 35.7 (N.S.) percent | percent inhibition of paw edema ([3]; dose 0.100 mg.kg): 50.1* percent | percent inhibition of paw edema ([3]; dose 0.250 mg.kg): 48.2* percent | percent inhibition of paw edema ([3]; dose 0.55 mg.kg): 42.2 (N.S.) percent
